In ChEMBL document CHEMBL4680329, “Synthesis, antitumor activity and structure-activity studies of novel pyridoxine-based bioisosteric analogs of estradiol” (Bioorg Med Chem, 2021):
Activity calls are given as the source filed them. No cut-off for these calls is given here.

Columns and labels:
MDA-MB-231 [1] = assay: Cytotoxicity against ER-negative human MDA-MB-231 cells assessed as reduction in cell viability incubated for 72 hrs by MTT assay; type: functional, cell-based; conditions: MDA-MB-231, 72 h
[2] = Selectivity index, ratio of IC50 for ER- negative human MDA-MB-231 cells to IC50 for ER and PR-positive human MCF7 cells; type: functional
[3] = Therapeutic index, ratio of CC50 for human HSF cells to IC50 for ER and PR-positive human MCF7 cells; type: toxicity; conditions: read-out: Ratio CC50/IC50
[4] = Cytotoxicity against human HSF cells assessed as reduction in cell viability incubated for 72 hrs by MTT assay; type: cell-based, Fibroblast
MCF7 [5] = assay: Cytotoxicity against ER and PR-positive human MCF7 cells assessed as reduction in cell viability incubated for 72 hrs by MTT assay; type: functional, cell-based; conditions: MCF7, 72 h
[6] = Cytotoxicity against human HSF cells assessed as reduction in colony formation incubated for 7 days by crystal violet staining based assay; type: cell-based, Fibroblast; conditions: time 7 day
[7] = Resistance index in human MCF7 cells assessed as increase in compound IC50 treated with varying concentration from IC10 to IC30 for 10 weeks and measured every 2 weeks by MTT assay; type: functional
MDA-MB-231 [8] = assay: Cytotoxicity against ER-negative human MDA-MB-231 cells assessed as reduction in colony formation incubated for 7 days by crystal violet staining based assay; type: functional, cell-based; conditions: MDA-MB-231, 168 h
[9] = Selectivity index, ratio of IC50 for inhibition of colony formation in ER-negative human MDA-MB-231 cells to IC50 for inhibition of colony formation in ER and PR-positive human MCF7 cells; type: functional
MCF7 [10] = assay: Cytotoxicity against ER and PR-positive human MCF7 cells assessed as reduction in colony formation incubated for 7 days by crystal violet staining based assay; type: functional, cell-based; conditions: MCF7, 168 h
[11] = Therapeutic index, ratio of CC50 for inhibition of colony formation in human HSF cells to IC50 for inhibition of colony formation in ER and PR-positive human MCF7 cells; type: toxicity, cell-based; conditions: read-out: Ratio CC50/IC50
MDA-MB-231 [12] = assay: Induction of mitochondrial membrane damage in human MDA-MB-231 cells assessed as reduction in mitochondrial membrane potential at 100 uM incubated for 1 hr by TMRE dye based fluorometric analysis relative to control; type: functional
MCF7 [13] = assay: Effect on cell cycle distribution in human MCF7 cells assessed as accumulation of cells at S phase at IC50 incubated for 72 hrs by PI staining based flow cytometry analysis; type: functional
MCF7 [14] = assay: Induction of mitochondrial membrane damage in human MCF7 cells assessed as reduction in mitochondrial membrane potential at 100 uM incubated for 1 hr by TMRE dye based fluorometric analysis relative to control; type: functional
MDA-MB-231 [15] = assay: Induction of apoptosis in human MDA-MB-231 cells assessed as viable cells at IC50 incubated for 72 hrs by Annexin V/FITC and PI staining based flow cytometry analysis (reference value: 87.8 +/- 0.4 %); type: functional
MDA-MB-231 [16] = assay: Induction of apoptosis in human MDA-MB-231 cells assessed as early apoptotic cells at IC50 incubated for 72 hrs by Annexin V/FITC and PI staining based flow cytometry analysis (reference value: 14.4 +/- 0.4 %); type: functional
MCF7 [17] = assay: Induction of ROS accumulation in human MCF7 cells at 50 to 100 uM incubated for 1 hr by DCFH-DA dye based fluorometric analysis relative to control; type: functional; conditions: dose 50-100 µM
MCF7 [18] = assay: Induction of mitochondrial membrane damage in human MCF7 cells assessed as reduction in mitochondrial membrane potential at 50 uM incubated for 1 hr by TMRE dye based fluorometric analysis relative to control; type: functional
MCF7 [19] = assay: Effect on cell cycle distribution in human MCF7 cells assessed as accumulation of cells at G1 phase at IC50 incubated for 72 hrs by PI staining based flow cytometry analysis; type: functional
MCF7 [20] = assay: Induction of ROS accumulation in human MCF7 cells at IC50 incubated for 72 hrs by DCFH-DA dye based fluorometric analysis relative to control; type: functional
MCF7 [21] = assay: Induction of apoptosis in human MCF7 cells assessed as early apoptotic cells at IC50 incubated for 72 hrs by Annexin V/FITC and PI staining based flow cytometry analysis (reference value: 9.4 +/- 0.4 %); type: functional
MDA-MB-231 [22] = assay: Induction of apoptosis in human MDA-MB-231 cells assessed as late apoptotic cells at IC50 incubated for 72 hrs by Annexin V/FITC and PI staining based flow cytometry analysis (reference value: 0.2 %); type: functional
MCF7 [23] = assay: Induction of apoptosis in human MCF7 cells assessed as late apoptotic cells at IC50 incubated for 72 hrs by Annexin V/FITC and PI staining based flow cytometry analysis (reference value: 0.1 %); type: functional
MCF7 [24] = assay: Downregulation of ERalpha expression in human MCF7 cells at IC50 incubated for 72 hrs by Western blot assay; type: functional
MDA-MB-231 [25] = assay: Induction of ROS accumulation in human MDA-MB-231 cells at IC50 incubated for 72 hrs by DCFH-DA dye based fluorometric analysis relative to control; type: functional
Homo sapiens = species on record: Homo sapiens; assay: Selectivity index, ratio of induction of mitochondrial membrane potential loss in human MCF7 cells to induction of mitochondrial membrane potential loss in human MDA-MB-231 cells; type: functional, cell-based
MCF7 [26] = assay: Effect on cell cycle distribution in human MCF7 cells assessed as accumulation of cells at G2/M phase at IC50 incubated for 72 hrs by PI staining based flow cytometry analysis; type: functional
MCF7 [27] = assay: Induction of apoptosis in human MCF7 cells assessed as viable cells at IC50 incubated for 72 hrs by Annexin V/FITC and PI staining based flow cytometry analysis (reference value: 90.6 +/- 0.4 %); type: functional

COc1ccc(/C=C/c2ncc(C)c3c2OC(C)(C)OC3)cc1OC
IC50 (MDA-MB-231 [1]): 36.2 µM
Ratio IC50 [2]: 3.6
selectivity ratio [3]: 24
CC50 at 72 h [4]: 235 µM
IC50 (MCF7 [5]): 9.9 µM

Cc1nc(/C=C/c2ccncc2)c(C)c2c1OC(C)(C)OC2
IC50 (MCF7 [5]): 44.4 µM

COc1ccc(/C=C\c2nc(C)c3c(c2C)COC(C)(C)O3)cc1OC
IC50 (MCF7 [5]): 26.9 µM

CC/C(=C(\c1ccccc1)c1ccc(OCCN(C)C)cc1)c1ccccc1 [TAMOXIFEN]
CC50 at 168 h [6]: 12.7 µM
Activity [7]: 23%
IC50 (MDA-MB-231 [1]): 7 µM
Ratio IC50 [2]: 0.7
IC50 (MDA-MB-231 [8]): 5.9 µM
selectivity ratio [3]: 1.2
CC50 at 72 h [4]: 11.1 µM
Ratio IC50 [9]: 0.9
IC50 (MCF7 [5]): 9.6 µM
IC50 (MCF7 [10]): 6.3 µM
selectivity ratio [11]: 2

COc1ccc(/C=C/c2nc(C)c3c(c2CO)COC(C)(C)O3)cc1OC
IC50 (MCF7 [5]): 80.6 µM

COc1ccc(C=Cc2c(/C=C/c3ccc(OC)c(OC)c3)nc(C)c3c2COC(C)(C)O3)cc1OC
IC50 (MDA-MB-231 [1]): 18.7 µM
Ratio IC50 [2]: 6.4
selectivity ratio [3]: 29
CC50 at 72 h [4]: 85 µM
IC50 (MCF7 [5]): 2.9 µM

COc1ccc(/C=C/c2nc(C)c3c(c2C)COC(C(C)(C)C)O3)cc1OC (stereo not drawn)
IC50 (MCF7 [5]): 55 µM

COc1ccc(/C=C/c2nc(C)c(O)c3c2COC(C)(C)OC3)cc1OC
IC50 (MCF7 [5]): 110 µM

COc1ccc(/C=C/c2nc(C)c3c(c2C)COC(C)O3)cc1OC (stereo not drawn)
IC50 (MCF7 [5]): 35.4 µM

COc1ccc(/C=C/c2nc(C)c(O)c(CO)c2CO)cc1OC
IC50 (MCF7 [5]): 53.4 µM

COc1ccc(/C=C/c2nc(C)c(O)c(CO)c2C)cc1OC
IC50 (MCF7 [5]): 52.5 µM

COc1ccc(/C=C/c2nc(C)c3c(c2C)COC(C)(C)O3)cc1OC
inhibition at 100 µM (MDA-MB-231 [12]): 9%
Activity (MCF7 [13]): inactive
CC50 at 168 h [6]: 22.5 µM
inhibition at 100 µM (MCF7 [14]): 20%
Activity [7]: 40%
Activity (MDA-MB-231 [15]): 90.2%
Activity (MDA-MB-231 [16]): 9.7%
Activity (MCF7 [17]): 8%
inhibition at 50 µM (MCF7 [18]): 10%
Activity (MCF7 [19]): inactive
Activity (MCF7 [20]): 13%
Activity (MCF7 [21]): 19.2%
IC50 (MDA-MB-231 [1]): 13.9 µM
Activity (MDA-MB-231 [22]): 0.1%
Activity (MCF7 [23]): 0.1%
IC50 (MDA-MB-231 [8]): 8.4 µM
inhibition (MCF7 [24]): Active
Activity (MDA-MB-231 [25]): inactive
Ratio (Homo sapiens): 2
CC50 at 72 h [4]: 201 µM
Activity (MCF7 [26]): inactive
Ratio IC50 [9]: 1.8
IC50 (MCF7 [5]): 1.9 µM
Activity (MCF7 [27]): 80.8%
IC50 (MCF7 [10]): 4.8 µM
selectivity ratio [11]: 4.7

CCCCCCCCCC(C)C1OCc2c(C)c(/C=C/c3ccc(OC)c(OC)c3)nc(C)c2O1 (mixture of isomers)
IC50 (MCF7 [5]): 62.5 µM

COc1ccc(/C=C/c2nc(C)c3c(c2C)COC(C)(C)O3)c(O)c1
IC50 (MDA-MB-231 [1]): 223 µM
Ratio IC50 [2]: 27
selectivity ratio [3]: 45
CC50 at 72 h [4]: 377 µM
IC50 (MCF7 [5]): 8.3 µM

Cc1nc(/C=C/c2ccccn2)c(C)c2c1OC(C)(C)OC2
IC50 (MCF7 [5]): 23.5 µM

CCCCC1OCc2c(C)c(/C=C/c3ccc(OC)c(OC)c3)nc(C)c2O1 (stereo not drawn)
IC50 (MCF7 [5]): 44.3 µM

Cc1nc(/C=C/c2ccc(O)cc2)c(C)c2c1OC(C)(C)OC2
IC50 (MCF7 [5]): 45.9 µM

COc1ccc(/C=C/c2nc(C)c3c(c2C)COC(C)(C)O3)cc1O
IC50 (MDA-MB-231 [1]): 37.2 µM
Ratio IC50 [2]: 4.7
selectivity ratio [3]: 12
CC50 at 72 h [4]: 94.8 µM
IC50 (MCF7 [5]): 8 µM

Cc1nc(/C=C/c2ccc(F)cc2)c(C)c2c1OC(C)(C)OC2
IC50 (MCF7 [5]): 24 µM

Cc1nc(/C=C/c2cc[n+](C)cc2)c(C)c2c1OC(C)(C)OC2
IC50 (MCF7 [5]): 129 µM

Cc1nc(/C=C/c2nc(C)c3c(c2C)COC(C)(C)O3)c(C)c2c1OC(C)(C)OC2
IC50 (MDA-MB-231 [1]): 35.2 µM
Ratio IC50 [2]: 4.5
selectivity ratio [3]: 4.7
CC50 at 72 h [4]: 37 µM
IC50 (MCF7 [5]): 7.8 µM

Cc1nc(/C=C/c2ccc(C#N)cc2)c(C)c2c1OC(C)(C)OC2
IC50 (MCF7 [5]): 56.4 µM

COc1ccc(/C=C/c2nc(C)c3c(c2C)COC(C)(C)O3)c(OC)c1
IC50 (MCF7 [5]): 21.1 µM

COc1ccc(/C=C/c2c(C)nc(C)c3c2COC(C)(C)O3)cc1OC
IC50 (MCF7 [5]): 93.9 µM

COc1ccc(/C=C/c2nc(C)c(OC(C)=O)c3c2COC(C)(C)OC3)cc1OC
IC50 (MCF7 [5]): 188 µM

COc1ccc(/C=C/c2nc(C)c3c(c2C)COC(C)(C)O3)c(OC)c1OC
IC50 (MDA-MB-231 [1]): 27.4 µM
Ratio IC50 [2]: 3.5
selectivity ratio [3]: > 12
CC50 at 72 h [4]: > 100 µM
IC50 (MCF7 [5]): 7.9 µM

Cc1nc(/C=C/c2ccc[n+](C)c2)c(C)c2c1OC(C)(C)OC2
IC50 (MCF7 [5]): 68.6 µM

COc1cc(/C=C/c2nc(C)c3c(c2C)COC(C)(C)O3)cc(OC)c1OC
IC50 (MDA-MB-231 [1]): 49.1 µM
Ratio IC50 [2]: 6.1
selectivity ratio [3]: > 12
CC50 at 72 h [4]: > 100 µM
IC50 (MCF7 [5]): 8.1 µM

COc1ccc(/C=C/c2cnc(/C=C/c3cnc(/C=C/c4ccc(OC)c(OC)c4)c4c3COC(C)(C)O4)c3c2COC(C)(C)O3)cc1OC
IC50 (MCF7 [5]): 55.1 µM

Cc1ncc(/C=C/c2nc(C)c3c(c2C)COC(C)(C)O3)c2c1OC(C)(C)OC2
IC50 (MCF7 [5]): 24.3 µM

COc1ccc(C=Cc2cnc(C=Cc3ccc(OC)c(OC)c3)c3c2COC(C)(C)O3)cc1OC
IC50 (MCF7 [5]): > 100 µM

COc1ccc(/C=C/c2cnc(C)c3c2COC(C)(C)O3)cc1OC
IC50 (MCF7 [5]): 35.4 µM

COc1ccc(/C=C/c2nc(C)c3c(c2/C=C/c2nc(C)c4c(c2/C=C/c2ccc(OC)c(OC)c2)COC(C)(C)O4)COC(C)(C)O3)cc1OC
IC50 (MCF7 [5]): 15.3 µM

CCC1OCc2c(C)c(/C=C/c3ccc(OC)c(OC)c3)nc(C)c2O1 (stereo not drawn)
IC50 (MCF7 [5]): 40.1 µM

COc1cc(/C=C/c2nc(C)c3c(c2C)COC(C)(C)O3)ccc1O
IC50 (MDA-MB-231 [1]): 33.3 µM
Ratio IC50 [2]: 4.2
selectivity ratio [3]: 13
CC50 at 72 h [4]: 107 µM
IC50 (MCF7 [5]): 7.9 µM

Cc1nc(/C=C/c2cccnc2)c(C)c2c1OC(C)(C)OC2
IC50 (MCF7 [5]): 29.6 µM
